Patent US7960393B2, “Pyrimidine derivatives useful for the treatment of diseases mediated by CRTH2” (Actimis Pharmaceuticals, Inc., priority 2002, dated 2011)

Key:
human CRTH2 [1] = molecular target: T1, human CRTH2 (Homo sapiens, UniProt Q9Y5Y4); experiment: Human CRTH2 receptor binding assay (Assay 2); conditions: binding to puromycin-resistant human CRTH2 L1.2 transfectants
T1 construct: expressed in transfected cells; host or cells: L1.2 cells, pEAK expression vector, puromycin-selected
T1 sequence (Q9Y5Y4 1-395): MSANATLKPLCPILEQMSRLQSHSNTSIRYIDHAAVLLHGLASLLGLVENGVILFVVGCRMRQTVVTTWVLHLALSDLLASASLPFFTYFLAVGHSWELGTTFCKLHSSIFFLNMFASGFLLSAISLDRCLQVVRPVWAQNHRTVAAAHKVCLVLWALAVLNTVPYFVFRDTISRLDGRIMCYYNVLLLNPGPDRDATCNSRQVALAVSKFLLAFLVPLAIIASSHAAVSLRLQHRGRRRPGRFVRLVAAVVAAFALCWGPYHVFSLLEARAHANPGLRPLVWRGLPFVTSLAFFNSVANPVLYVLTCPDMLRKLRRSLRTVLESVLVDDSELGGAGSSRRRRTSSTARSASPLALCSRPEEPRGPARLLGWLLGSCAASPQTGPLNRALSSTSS
Protocol: Human CRTH2 cDNA was amplified from human eosinophil cDNA with gene specific primers containing restriction sites for cloning into pEAK vector (Edge Bio Systems). The human CRTH2 cDNA was cloned into the mammalian expression vector pEAK. This expression plasmid (40 μg) was transfected into L1.2 cells, at a cell density of 1×10^7 cells/500 μl, by using electroporation apparatus (Gene Pulser II, BioRad) at 250V/1,000 μF. One day after the transfection, puromycin (1 μg/ml, Sigma) was added into the cell culture plates. Two weeks after the transfection, grown cells were picked up for further growth.
[Human CRTH2 Receptor Binding Assay] (Assay 2)
CRTH2 transfectants were washed once with PBS and resuspended in binding buffer (50 mM Tris-HCl, pH7.4, 40 mM MgCl2, 0.1% BSA, 0.1% NaN3). 100 μl of cell suspension (2×10^5 cells), [^3H]-labeled PGD2, and various concentrations of test compound were then mixed in a 96-well U-bottom polypropylene plate and incubated for […] at room temperature to allow binding to occur. […] Scintillant was added to the filtration plate, and radioactivity remaining on the filter was measured by TopCount (Packard), a scintillation counter. Non-specific binding was determined by incubating the cell suspension and [^3H]-labeled PGD2 in the presence of 1 μM of unlabeled PGD2.

human CRTH2 [2] = molecular target: T1, human CRTH2; experiment: Measurement of Ca2+ mobilization in the human CRTH2-transfected L1.2 cell line (Assay 1); assay type: cell-based; conditions: PGD2-induced Ca2+ mobilization in CRTH2-transfected L1.2 cells; compounds as yielded by solid phase synthesis, purity about 40 to 90%; read-out: Activity class
Outline: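 Human CRTH2 was stably expressed in L1.2 cells (puromycin-selected) loaded with Fluo-3AM (1 μM final) for 60 min at room temperature. Buffer was 20 mM HEPES pH 7.6, 0.1% BSA, 1 mM probenecid in Hanks'. Cells (2×10^5/well) got compound for 5 min at RT, with fluorescence at 480 nm. IC50 bins: A ≤10 nM, B ≤100 nM, C ≤500 nM, D above; samples were solid-phase products of about 40–90% purity.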

Structure (SMILES)	Kd (human CRTH2 [1])	IC50 (human CRTH2 [2])	melting point
CN(C)c1nc(Cc2ccc(NC(=O)/C=C/c3ccccc3)cc2)nc(N2CCOCC2)c1CC(=O)O [Example 7-21]		10 to 100 nM	129 to 132 °C
CN(C)c1nc(Cc2ccc(NC(=O)c3ccc(Cl)c(Cl)c3)cc2)nc(Cl)c1CC(=O)O [Example 1-34]		< 10 nM	> 168 °C
CN(C)c1nc(Cc2ccc(NC(=O)c3ccc(Cl)cc3)cc2)nc(N2CCOCC2)c1CC(=O)O [Example 7-18]		100 to 500 nM	216 to 218 °C (dec.)
O=C(O)Cc1c(Cl)nc(Cc2ccc(NC(=O)/C=C/c3ccc(Cl)cc3)cc2)nc1N1CCCC1 [Example 1-65]		< 10 nM	188 to 190 °C
CN(C)c1nc(Cc2ccc(NC(=O)c3cccc(Oc4ccccc4)c3)cc2)nc(N2CCCC2)c1CC(=O)O [Example 7-23]		10 to 100 nM	123 to 125 °C
O=C(O)Cc1c(Cl)nc(Cc2ccc(NC(=O)c3ccc([N+](=O)[O-])cc3)cc2)nc1N1CCCC1 [Example 1-53]		10 to 100 nM	134 °C
CN(C)c1nc(Cc2ccc(NC(=O)/C=C/c3ccccc3)cc2)ncc1CC(=O)O [Example 2-10]		< 10 nM	135 to 140 °C
CN(C)c1nc(Cc2ccc(NC(=O)/C=C/c3ccc(Cl)cc3)cc2)nc(Cl)c1CC(=O)O [Example 1-41]		< 10 nM	117 °C
CC(=O)Nc1ccc(C(=O)Nc2ccc(Cc3nc(Cl)c(CC(=O)O)c(N4CCCC4)n3)cc2)cc1 [Example 1-54]		10 to 100 nM	189 °C
CN(C)c1nc(Cc2ccc(NC(=O)c3ccc4ccccc4n3)cc2)ncc1CC(=O)O [Example 2-9]		10 to 100 nM	136 to 144 °C
CN(C)c1nc(Cc2ccc(NC(=O)c3ccc(C(F)(F)F)cc3)cc2)nc(N2CCCC2)c1CC(=O)O [Example 7-12]		10 to 100 nM	144 to 147 °C
CN(C)c1nc(Cc2ccc(NC(=O)c3cccc(-c4ccccc4)c3)cc2)nc(N2CCCC2)c1CC(=O)O [Example 7-15]		10 to 100 nM	147 to 179 °C
CN(CC(=O)NC1CCCC1)c1nc(Cc2ccc(NC(=O)/C=C/c3ccccc3)cc2)nc(Cl)c1CC(=O)O [Example 1-17]		< 10 nM	142 °C
CN(CC(=O)NC1CCCC1)c1nc(Cc2ccc(NC(=O)c3cc4ccccc4[nH]3)cc2)nc(Cl)c1CC(=O)O [Example 1-26]		< 10 nM	146 °C
CCc1nc(Cc2ccc(NC(=O)c3ccc4ccccc4c3)cc2)nc(N(C)C)c1CC(=O)O [Example 8-8]		< 10 nM	148 to 150 °C
O=C(O)Cc1c(Cl)nc(Cc2ccc(NC(=O)c3ccc(C(F)(F)F)cc3)cc2)nc1N1CCCC1 [Example 1-64]		< 10 nM	162 °C
CN(C)c1nc(Cc2ccc(NC(=O)c3ccccc3Oc3ccccc3)cc2)nc(N2CCCC2)c1CC(=O)O [Example 7-22]		> 500 nM	192 to 194 °C
CN(CC(=O)NC1CCCC1)c1nc(Cc2ccc(NCc3ccc4ccccc4c3)cc2)nc(Cl)c1CC(=O)O [Example 5-3]		100 to 500 nM	> 96 °C
CN(CC(=O)NC1CCCC1)c1nc(Cc2ccc(NC(=O)Cc3ccc(-c4ccccc4)cc3)cc2)nc(Cl)c1CC(=O)O [Example 1-24]		100 to 500 nM	124 °C
CN(C)c1nc(Cc2ccc(NC(=O)c3cccc(Cl)c3Cl)cc2)nc(Cl)c1CC(=O)O [Example 1-43]		100 to 500 nM	101 °C
CN(CC(=O)NC1CCCC1)c1nc(Cc2ccc(NC(=O)c3ccc(C#N)cc3)cc2)nc(Cl)c1CC(=O)O [Example 1-27]		< 10 nM	101 °C
CN(C)c1nc(Cc2ccc(NC(=O)c3ccc(Cl)c(Cl)c3)cc2)nc(N2CCOCC2)c1CC(=O)O [Example 7-19]		10 to 100 nM	196 to 198 °C
CC(=O)Nc1ccc(Cc2nc(Cl)c(CC(=O)O)c(N(C)CC(=O)NC3CCCC3)n2)cc1 [Example 1-10]		> 500 nM	> 118 °C
CN(CC(=O)NC1CCCC1)c1nc(Cc2ccc(NC(=O)c3ccc(Cl)c(Cl)c3)cc2)nc(Cl)c1CC(=O)O [Example 1-19]		< 10 nM	144 °C
CN(C)c1nc(Cc2ccc(NC(=O)c3ccc(-c4ccccc4)cc3)cc2)nc(N2CCCC2)c1CC(=O)O [Example 7-16]		10 to 100 nM	224 to 226 °C
COc1ccc(C(=O)Nc2ccc(Cc3ncc(CC(=O)O)c(N(C)C)n3)cc2)cc1OC [Example 2-12]		100 to 500 nM	106 to 110 °C

Further lines, results first:

Kd (human CRTH2 [1])	IC50 (human CRTH2 [2])	melting point	Structure (SMILES)
6.3 nM			CCCCC[C@H](O)/C=C/[C@H]1C(=O)C[C@H](O)[C@@H]1C/C=C\CCCC(=O)O [[^3H]-labeled PGD2]
	< 10 nM	128 to 131 °C	COCc1nc(Cc2ccc(NC(=O)c3ccc4ccccc4c3)cc2)nc(N(C)C)c1CC(=O)O [Example 8-6]
	< 10 nM	> 75 °C	COc1cccc(C(=O)Nc2ccc(Cc3nc(Cl)c(CC(=O)O)c(N(C)C)n3)cc2)c1 [Example 1-48]
	< 10 nM	88 to 91 °C	CN(C)c1nc(Cc2ccc(NC(=O)OCc3ccccc3)cc2)nc(Cl)c1CC(=O)O [Example 9-3]
	100 to 500 nM	132 to 135 °C	CN(C)c1nc(Cc2ccc(NC(=O)c3ccc(F)cc3)cc2)nc(N2CCCC2)c1CC(=O)O [Example 7-28]
	< 10 nM	> 176 °C	CN(CC(=O)NC1CCCC1)c1nc(Cc2ccc(NC(=O)c3ccc4ccccc4c3)cc2)nc(Cl)c1CC(=O)O [Example 1-62]
	< 10 nM	> 120 °C	CN(C)c1nc(Cc2ccc(NC(=O)[C@@H]3CCc4ccccc4O3)cc2)nc(Cl)c1CC(=O)O [Example 1-67]
	< 10 nM	136 to 140 °C	CN(C)c1nc(Cc2ccc(NC(=O)/C=C/c3ccc(Cl)cc3)cc2)ncc1CC(=O)O [Example 2-11]
	100 to 500 nM	145 to 148 °C (dec.)	O=C(O)Cc1cnc(Cc2ccc(NC(=O)CC3CC3)cc2)nc1N1CCCC1 [Example 2-33]
	< 10 nM	> 99 °C	CN(C)c1nc(Cc2ccc(NC(=O)c3cc(Cl)cc(Cl)c3)cc2)nc(Cl)c1CC(=O)O [Example 1-46]
	10 to 100 nM	145 to 148 °C	CC(C)c1nc(Cc2ccc(NC(=O)c3ccc(C(F)(F)F)cc3)cc2)nc(N(C)C)c1CC(=O)O [Example 8-11]
	100 to 500 nM	197 to 198 °C	CN(C)c1nc(Cc2ccc(NC(=O)c3ccc(F)cc3)cc2)nc(N2CCOCC2)c1CC(=O)O [Example 7-30]
	< 10 nM	> 166 °C	CN(C)c1nc(Cc2ccc(NC(=O)c3ccc(Cl)cc3)cc2)nc(Cl)c1CC(=O)O [Example 1-35]
	< 10 nM	> 111 °C	CN(C)c1ccc(C(=O)Nc2ccc(Cc3nc(Cl)c(CC(=O)O)c(N(C)C)n3)cc2)cc1 [Example 1-37]
	> 500 nM	> 146 °C	CN(CC(=O)NC1CCCC1)c1nc(Cc2ccc(NC(=O)C3CC3)cc2)nc(Cl)c1CC(=O)O [Example 1-6]
	< 10 nM	221 to 224 °C (dec.)	O=C(O)Cc1cnc(Cc2ccc(NC(=O)c3ccc4ccccc4n3)cc2)nc1N1CCCC1 [Example 2-27]
	10 to 100 nM	186 °C	CN(C)c1nc(Cc2cccc(NC(=O)c3ccc4ccccc4c3)c2)nc(Cl)c1CC(=O)O [Example 1-49]
